How the values were obtained:
[1] = system: RUNX2; test: DN-RUNX2 assay: interference with up-regulation of AP activity in MPCs; format: cell-based, human; details: Ad-NR1H3 + T0901317 plus Ad-DN-RUNX2 versus Ad-luciferase, 6 days post infection
Text: Since the osteogenic activity of BMP2 is known to work through RUNX2, Ad-BMP2 and Ad-DN-RUNX2 viruses are used to develop the DN-RUNX2 assay. The human full-length RUNX2 cDNA is obtained by RT-PCR from total RNA extracted from MPCs. The 5′ part of the cDNA encoding amino acids 1-214 is obtained by PCR from the cloned RUNX2 cDNA and subcloned in an adenoviral adapter plasmid. The identity of the cloned fragment is verified by sequencing. This plasmid is used to generate an adenoviral stock, as described in WO 9964582.
MPCs are seeded at 1000 cells/well in a 384 well plate and infected the next day with adenoviruses encoding hCAR (MOI 250), Ad-BMP2 (MOIs 6000, 2000, 666) and one of Ad-DN-RUNX2 or Ad-luciferase (MOIs 2000 or 666). Alkaline phosphatase activity is read 6 days post infection.
The DN-RUNX2 assay is used to test the involvement of RUNX2 in the up-regulation of AP activity by NR5A2, NR1H3, and ESRRG. MPCs are seeded at 1000 cells/well in a 384 well plate and are infected the next day with adenoviruses encoding hCAR (MOI 250), Ad-BMP2, Ad-ESRRG, Ad-NR5A2, Ad-NR1H3 (MOIs 6000, 2000, 666) and one of Ad-DN-RUNX2 or Ad-luciferase (MOI 1000 or MOIs 2000 and 666) (see FIG. 19(C)). Alkaline phosphatase activity is read 6 days post infection and raw data are analysed.

[2] = system: primary human MPCs; test: Mineralization assay (Alizarin RedS / Von Kossa stain); format: cell-based; details: MPCs with NR1H3 and ligand
Experimental: On day one, primary human MPCs are seeded in a 6 well plate (Costar or Nunc) at a density of 50,000 to 250,000 cells per well, typically at 100,000 cells per well. MPCs are co-infected one day later with AdC15-hCAR (MOI 750) and Ad-control (eGFP or BMP2) or hit-virus (Ad5) (at MOIs between 250 and 20,000, typically at MOIs 5000 and 2500). For Ad-GPCR or Ad-NHR experiments, cells can additionally be treated with specific ligands. These are added at the EC50 concentration and at concentrations 5-10 times higher and lower. Ligands are added 2-3 times per week. Medium supplemented with 100 μg/ml L-ascorbate and 10 mM beta-glycerophosphate, is refreshed 2 times a week. 20 to 30 days after the start of the experiment, cells are stained with Von Kossa stain or with Alizarin RedS stain.
The Alizarin RedS staining is carried out as follows: cells are washed once with PBS, fixed with 10% paraformaldehyde for 45 minutes at 4° C., and washed 2 times with PBS. Cells are incubated with 40 mM aqueous Alizarin RedS solution, pH 4.1-4.3 for 10 minutes followed by 5 washes with distilled water. Staining is evaluated and photographed using white light.

[3] = target: T1, NR1H2 (Homo sapiens, UniProt P55055); test: Alkaline phosphatase (AP) assay in MPCs infected with Ad-NR1H2 and treated with ligand; format: cell-based; details: MPCs infected with Ad-NR1H2, increasing ligand concentrations, MUP readout after 7, 10 and 13 days
T1 construct: amplification of the complete open reading frame from ATG start codon to the stop codon of drugable genes; expressed in transfected cells; host or cells: primary human bone-marrow MPCs, adenoviral transduction (Ad5-NR1H2 with Ad-hCAR)
T1 sequence (P55055 1-460): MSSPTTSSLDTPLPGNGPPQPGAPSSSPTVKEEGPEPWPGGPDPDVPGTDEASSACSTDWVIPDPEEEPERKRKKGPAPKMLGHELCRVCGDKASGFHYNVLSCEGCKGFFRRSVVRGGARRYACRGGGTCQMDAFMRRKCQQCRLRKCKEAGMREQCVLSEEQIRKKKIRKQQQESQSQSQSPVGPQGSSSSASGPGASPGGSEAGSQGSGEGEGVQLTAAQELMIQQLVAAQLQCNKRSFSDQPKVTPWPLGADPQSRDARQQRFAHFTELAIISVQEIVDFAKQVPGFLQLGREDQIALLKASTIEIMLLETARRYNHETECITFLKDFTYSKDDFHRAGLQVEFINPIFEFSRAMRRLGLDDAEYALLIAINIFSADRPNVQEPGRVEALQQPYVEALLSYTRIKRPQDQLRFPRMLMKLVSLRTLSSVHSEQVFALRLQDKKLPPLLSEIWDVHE
Experimental: (§1) After 6 days, medium is removed and replaced with fresh medium containing the same concentrations of the compound T0901317. Readouts of AP activity are performed at several time points after the start of the experiment, typically after 7, 10 and 13 days. Up-regulation of alkaline phosphatase activity is read as follows: medium is removed from the monolayers, 15 μl MUP is added to each well, the plates are incubated for 15 min at 37° C. and then read for AP activity using a fluorescence plate reader (Fluostar, BMG).
as §1, with “MPCs are seeded on day 0 at 1000 cells per well of a 384 well plate and co-infected the next day using AdC51-hCAR (MOI 250) and different MOIs of Ad5-NR1H2 (MOI 2000, 666). On day 1, 9 concentrations (1.52E-9M, 4.57E-9M, 1.37E-8M, 4.12E-8M, 1.23E-7M, 3.7E-7M, 1.11E-6M, 3.33E-6M, 1E-5M) of the compound GW3965 with fixed vehicle concentration (DMSO at final concentration of 0.161%) are added to the wells. After” for “After”, “GW3965.” for “T0901317.”
as §1, with “APD.” for “T0901317.”

up-regulation of alkaline phosphatase (AP) activity [3]: dose-response relation
SMILES: O=S(=O)(c1ccccc1)N(CC(F)(F)F)c1ccc(C(O)(C(F)(F)F)C(F)(F)F)cc1 [T0901317]
up-regulation of AP activity induced by NR1H3 in the presence of T0901317, under overexpression of DN-RUNX2 [1]: significantly reduces
mineralization [2]: score well
